Experimental data from patent US11091490B2, “3-amino-1,5-dihydro-pyrazolo[3,4-d]pyrimidin-4-ones as cyclin dependent kinase inhibitors” (Oncotyrol Center for Personalized Cancer Medicine GMBH, priority 2016, dated 2021).
Values joined by “and” are separate entries in the source; they are usually repeats but may differ in a detail not shown here. Identical values can stand only once. Like-named read-outs stand apart in the source and are kept apart here.

Assays:
CDK7 = molecular target: T1, CDK7 (Homo sapiens, UniProt P50613); assay: Target selectivity profile (DiscoverX KinomeScan) CDK7; type: binding
T1 construct: purchased DiscoverX
Excerpt: (§1) 3. Target Selectivity Profile (DiscoverX KinomeScan)
(§2) According to an analysis of kinase inhibitory selectivity carried out in accordance with Karaman M W et al., Nat Biotechnol. 2008 January; 26(1):127-32. doi: 10.1038/nbt1358.

CDK13 = molecular target: T2, CDK13 (Homo sapiens, UniProt Q14004); assay: Target selectivity profile (DiscoverX KinomeScan) CDK13; type: binding
T2 construct: purchased DiscoverX
Excerpt: as §1, §2

CDK16 = molecular target: T3, CDK16 (Homo sapiens, UniProt Q00536); assay: Target selectivity profile (DiscoverX KinomeScan) CDK16; type: binding
T3 construct: purchased DiscoverX
Excerpt: as §1, §2

Pharmacokinetic studies = details: in vivo
Excerpt: Pharmacokinetic studies on the compounds of the present invention have been carried out in accordance with Endele R and Senn M., Int. J. Mass Spectrom. Ion Phys. 1983 January; 48:81-84. doi:10.1016/0020-7381(83)87033-8.

RPMI-8226/GN1 = assay: Multiple myeloma cells in mono- and co-culture with osteoblasts, imaging based detection (RPMI-8226); type: cell-based
Procedure: Compound 86 has been compared with the key compound of WO 2000/21926 A2 (Example 121) in an imaging based detection system.
Two different multiple myeloma (MM) cell lines (RPMI-8226 (DSMZ, ACC 402), NCI-H929 DSMZ, ACC 163) have been used and were cultured in mono- and co-culture with osteoblasts (OB) (Osteoblasts were obtained by culturing hMSCs with a differentiation inducing medium for two weeks) in accordance with the method of Karadag A. et al. Journal of Bone and Mineral Research Vol. 15, No. 10, 2000 page 1935-43.

COLO205 (colon) = assay: In vitro proliferation screening (Sulforhodamin B) COLO205; type: cell-based, human; details: COLO205, 72 h, unit M
Excerpt: (§3) In order to evaluate the antitumor activity of the compounds of the present invention, in particular compound 86, in solid tumors, an in vitro proliferation screening in a panel of 10 different human cancer cell lines derived from solid tumors (see Table 5, below) as a model system.
(§4) Six 10-fold dilutions of compound 86 have been prepared in DMSO, from 5×10^−9 M to 5×10^−4. Single data points have been tested for each concentration. The final concentration of DMSO was 0.1%. The duration of the treatment was 72 hours. The growth inhibition was measured by using Sulforhodamin B, a protein-staining assay in accordance with Vichai V et. al. Nat. Protoc. 2006; 1(3):1112-6. Activity of the agents was determined by evaluating the following parameters: IC50, GI50, IC10, GI10, TGI, LC50, IC90 and GI90 (if these values could be calculated).

DU145 (prostate) = assay: In vitro proliferation screening (Sulforhodamin B) DU145; type: cell-based; details: Homo sapiens, DU-145; DU145, 72 h; unit M
Excerpt: as §3, §4

[1] = test system: HT1080 (connective tissue); assay: In vitro proliferation screening (Sulforhodamin B) HT1080; type: cell-based, human; details: HT1080, 72 h
Excerpt: as §3, §4

MDAMB468 (breast) = assay: In vitro proliferation screening (Sulforhodamin B) MDAMB468; type: cell-based; details: Homo sapiens, MDA-MB-468; MDAMB468, 72 h; unit M
Excerpt: as §3, §4

UO31 (kidney) = assay: In vitro proliferation screening (Sulforhodamin B) UO31; type: cell-based, human; details: UO31, 72 h
Excerpt: as §3, §4

PBMC control cells = assay: In vitro proliferation screening (Sulforhodamin B) PBMC control cells; type: cell-based; details: 72 h
Procedure: as §4

[2] = test system: HeLa cervix carcinoma cells; assay: Cell cycle analysis (propidium iodide FACS) HeLa; type: cell-based
Excerpt: (§5) In order to investigate the mode of action (MOA) related to the antitumor activity of the compounds of the present invention (in particular compound 86) in solid tumors and multiple myeloma, two experimental strategies were used to confirm the postulated MOA: 1) monitoring of apoptosis induction and 2) cell cycle analysis upon treatment with compound 86. Three cancer cell lines (LP-1, (multiple myeloma cells, DSMZ ACC 41), A375 (melanoma cells), and HeLa (cervix carcinoma cells)) as well as control cells (HS-5 bone marrow stroma cells, ATCC CRL-11882) were used to obtain mechanistic insight into the antitumor activity of compound 86.
(§6) Measuring of DNA content in cells is a well-established method for monitoring cell proliferation, cell cycle, fragmentation of nuclei (apoptosis) and DNA ploidy. Proliferating cells progress through various phases of the cell cycle (G0, G1, S, G2, and M phase). At different stages of the cell cycle and life cycle, cell nuclei contain different amounts of DNA. The DNA content in cell nuclei was analyzed by propidium iodide (PI) staining and FACS analysis after 12 and 24 h of treatment with 100 nM of compound 86 in accordance with the method of Desai Brijal M. et. al. PLOS Vol. 8; Issue 3; p. 1-11, 2013.

[3] = test system: HS-5 bone marrow stroma cells (control); assay: Cell cycle analysis (propidium iodide FACS) HS-5; type: cell-based; details: HS-5 control cells, 100 nM, 12 and 24 h
Excerpt: as §5, §6

[4] = test system: LP-1 multiple myeloma cells; assay: PARP cleavage Western blot LP1; type: cell-based; details: LP1, 24 h, 100 nM, FIG. 1B legend 0.08 μM
Excerpt: as §5
(§7) Annexin V staining and Poly(ADP-ribose)-Polymerase 1 (PARP) protein cleavage was analyzed to identify a pro-apoptotic effect of compound 86 on tumor cells in accordance with the method of Koopman G, et. al. Blood 1994; 1; 84(5):1415-20. Annexin V allows the identification of cell surface changes that occur early during the apoptotic process by in situ detection, which is ideal for the analysis with adherent cells. Cleavage of PARP-1 by caspases is considered to be a hallmark of apoptosis and was therefore applied to monitor apoptosis induction after 24 h of treatment with 100 nM of compound 86.

A375 melanoma cells = assay: Annexin V/PI staining A375; type: cell-based; details: A375, 0.1 μM, 12 h and 24 h
Excerpt: as §5, §7

[5] = test system: HS-5 bone marrow stroma cells (control); assay: Annexin V/PI staining HS-5; type: cell-based; details: HS-5 control cells, 0.1 μM, 12 h and 24 h
Excerpt: as §5, §7

T1 sequence (P50613 whole entry): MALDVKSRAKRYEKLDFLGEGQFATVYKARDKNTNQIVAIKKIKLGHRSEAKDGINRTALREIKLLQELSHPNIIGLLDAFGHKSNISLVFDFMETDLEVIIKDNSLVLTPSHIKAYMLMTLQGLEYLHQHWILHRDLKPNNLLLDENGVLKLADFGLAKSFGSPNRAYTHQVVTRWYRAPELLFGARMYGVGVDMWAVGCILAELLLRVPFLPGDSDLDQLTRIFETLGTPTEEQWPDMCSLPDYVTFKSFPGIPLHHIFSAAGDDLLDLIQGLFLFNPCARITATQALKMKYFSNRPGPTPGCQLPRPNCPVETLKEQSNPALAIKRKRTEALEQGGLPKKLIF
T2 sequence (Q14004 whole entry): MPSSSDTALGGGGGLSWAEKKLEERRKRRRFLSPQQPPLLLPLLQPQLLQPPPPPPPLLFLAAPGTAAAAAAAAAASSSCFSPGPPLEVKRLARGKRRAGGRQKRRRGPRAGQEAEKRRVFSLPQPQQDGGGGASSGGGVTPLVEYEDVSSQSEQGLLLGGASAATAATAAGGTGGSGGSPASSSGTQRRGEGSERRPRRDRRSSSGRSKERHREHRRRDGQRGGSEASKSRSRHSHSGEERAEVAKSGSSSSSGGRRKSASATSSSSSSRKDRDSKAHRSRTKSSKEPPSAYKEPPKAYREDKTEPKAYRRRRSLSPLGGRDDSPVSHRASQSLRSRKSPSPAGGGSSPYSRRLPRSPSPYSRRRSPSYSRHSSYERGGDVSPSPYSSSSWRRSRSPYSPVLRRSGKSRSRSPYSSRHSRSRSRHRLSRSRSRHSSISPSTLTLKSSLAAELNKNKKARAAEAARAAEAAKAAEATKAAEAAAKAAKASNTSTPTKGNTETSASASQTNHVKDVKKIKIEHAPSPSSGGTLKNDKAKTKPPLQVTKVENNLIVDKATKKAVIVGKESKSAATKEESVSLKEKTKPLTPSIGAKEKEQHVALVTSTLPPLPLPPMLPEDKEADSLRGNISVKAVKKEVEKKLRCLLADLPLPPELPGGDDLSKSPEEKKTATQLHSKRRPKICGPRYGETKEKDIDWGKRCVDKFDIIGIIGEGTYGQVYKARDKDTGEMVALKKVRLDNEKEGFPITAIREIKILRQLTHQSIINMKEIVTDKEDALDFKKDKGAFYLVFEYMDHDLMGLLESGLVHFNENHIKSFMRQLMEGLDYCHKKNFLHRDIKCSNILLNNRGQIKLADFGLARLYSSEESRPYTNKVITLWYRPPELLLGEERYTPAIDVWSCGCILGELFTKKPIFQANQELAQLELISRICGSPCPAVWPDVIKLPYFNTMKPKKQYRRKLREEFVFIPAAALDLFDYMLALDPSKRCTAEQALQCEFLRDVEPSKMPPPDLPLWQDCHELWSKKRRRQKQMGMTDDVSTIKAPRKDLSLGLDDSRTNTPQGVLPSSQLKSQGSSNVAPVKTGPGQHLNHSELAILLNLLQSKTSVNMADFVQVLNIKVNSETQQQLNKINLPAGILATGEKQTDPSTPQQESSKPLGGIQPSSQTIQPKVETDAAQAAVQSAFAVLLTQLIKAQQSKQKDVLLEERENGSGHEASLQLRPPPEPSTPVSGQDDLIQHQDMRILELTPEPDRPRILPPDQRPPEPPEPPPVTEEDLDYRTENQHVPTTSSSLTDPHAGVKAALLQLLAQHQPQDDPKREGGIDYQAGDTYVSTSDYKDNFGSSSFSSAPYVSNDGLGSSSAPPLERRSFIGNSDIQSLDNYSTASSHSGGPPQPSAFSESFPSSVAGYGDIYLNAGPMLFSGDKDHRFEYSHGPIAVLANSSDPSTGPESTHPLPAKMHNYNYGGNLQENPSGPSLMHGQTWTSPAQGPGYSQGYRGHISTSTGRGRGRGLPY
T3 sequence (Q00536 whole entry): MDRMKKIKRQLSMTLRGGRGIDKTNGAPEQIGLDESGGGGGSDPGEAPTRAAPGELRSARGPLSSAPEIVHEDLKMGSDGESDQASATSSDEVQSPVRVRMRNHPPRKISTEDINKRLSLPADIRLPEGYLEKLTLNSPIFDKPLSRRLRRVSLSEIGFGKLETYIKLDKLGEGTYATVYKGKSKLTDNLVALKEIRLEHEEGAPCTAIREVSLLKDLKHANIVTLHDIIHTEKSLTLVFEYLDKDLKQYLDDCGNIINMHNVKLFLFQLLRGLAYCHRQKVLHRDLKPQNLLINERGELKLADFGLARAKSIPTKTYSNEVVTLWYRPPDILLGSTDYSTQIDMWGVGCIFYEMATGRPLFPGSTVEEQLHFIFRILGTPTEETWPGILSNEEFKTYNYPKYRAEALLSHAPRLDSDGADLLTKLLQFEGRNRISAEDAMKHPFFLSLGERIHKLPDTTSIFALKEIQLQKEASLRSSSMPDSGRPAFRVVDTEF

CCN(CC)CC(=O)Nc1ccc(Cc2nc3c(c(N(C)C)nn3-c3c(Cl)cc(S(N)(=O)=O)cc3Cl)c(=O)[nH]2)cc1 [Compound 86, N-{4-[1-(2,6-Dichloro-4-sulfamoyl-phenyl)-3-dimethylamino-4-oxo-4,5-dihydro-1H-pyrazolo[3,4-d]pyrimidin-6-ylmethyl]-phenyl}-2-diethylamino-acetamide]
kinase inhibitory selectivity: CDK7 (CDK7): active as inhibitors | kinase inhibitory selectivity: CDK13 (CDK13): active as inhibitors | kinase inhibitory selectivity: CDK16 (CDK16): active as inhibitors | oral bioavailability (Pharmacokinetic studies): display oral bioavailability | EC50 (RPMI-8226/GN1; Homo sapiens, RPMI-8226, RPMI-8226/GN1, co-culture with osteoblasts, read-out: co-culture (+ OB) EC50): 0.14 µM | EC50 (RPMI-8226/GN1; Homo sapiens, RPMI-8226, RPMI-8226/GN1, mono-culture, read-out: mono-culture EC50): 0.14 µM | EC50 (RPMI-8226/GN1; RPMI-8226/GN1, co-culture with osteoblasts, read-out: co-culture (+ OB) EC50): 0.22 µM and 0.18 µM | EC50 (RPMI-8226/GN1; RPMI-8226/GN1, mono-culture, read-out: mono-culture EC50): 0.19 µM and 0.12 µM | GI50 (COLO205 (colon)): 0.0209 µM | GI50 (COLO205 (colon); Homo sapiens, COLO 205, 72 h): 0.021 µM | IC50 (COLO205 (colon); Homo sapiens, COLO 205): 0.0242 µM | GI50 (DU145 (prostate)): 0.0324 µM | IC50 (DU145 (prostate)): 0.0373 µM | growth inhibitory response in words [1]: growth inhibition in the middle nanomolar range | GI50 ([1]; Homo sapiens, HT-1080, unit M): 0.0364 µM | IC50 ([1]; Homo sapiens, HT-1080, unit M): 0.038 µM | GI50 (MDAMB468 (breast)): 0.0389 µM | IC50 (MDAMB468 (breast)): 0.043 µM | GI50 (UO31 (kidney); Homo sapiens, UO-31, unit M): 0.339 µM | IC50 (UO31 (kidney); Homo sapiens, UO-31, unit M): 0.36 µM | growth inhibitory response in words (UO31 (kidney)): responded rather weakly in the micromolar range | response to treatment (growth inhibition) (PBMC control cells): resistant | cell cycle profile (DNA content) ([2]; 0.1 μM, 12 and 24 h (FIG. 1A)): cell cycle defects and a progressive enrichment of the sub G1 group | cell cycle profile (DNA content) ([2]; 100 nM, 12 h): unaffected | cell cycle profile (DNA content) ([2]; 100 nM, 24 h): clear response | cell cycle profile (DNA content) [3]: remained unchanged | PARP cleavage [4]: specific induction of PARP cleavage | PARP cleavage ([4]; listed as Otviciclib): induction of PARP cleavage | induction of apoptosis (Annexin V/PI staining) (A375 melanoma cells): specific induction of apoptosis | induction of apoptosis (Annexin V/PI staining) (A375 melanoma cells; listed as Otviciclib): reproducible induction of apoptosis | induction of apoptosis (Annexin V/PI staining) [5]: did not respond
